Where “and” joins values, the source holds several entries; their conditions need not be identical. Equal values may be shown once.
How the values were obtained:
endogenous mouse MPO = target: T1, endogenous mouse MPO (Mus musculus, UniProt P11247); experiment: LPS induced myositis, MR imaging at 4.7 T; format: in vivo; conditions: mice with LPS induced myositis
T1 construct: endogenous in cells; host or cells: inflammatory cells recruited by LPS in C57BL6 male mice (Matrigel site in the thigh, or flank muscle myositis)
T1 sequence (P11247 139-718): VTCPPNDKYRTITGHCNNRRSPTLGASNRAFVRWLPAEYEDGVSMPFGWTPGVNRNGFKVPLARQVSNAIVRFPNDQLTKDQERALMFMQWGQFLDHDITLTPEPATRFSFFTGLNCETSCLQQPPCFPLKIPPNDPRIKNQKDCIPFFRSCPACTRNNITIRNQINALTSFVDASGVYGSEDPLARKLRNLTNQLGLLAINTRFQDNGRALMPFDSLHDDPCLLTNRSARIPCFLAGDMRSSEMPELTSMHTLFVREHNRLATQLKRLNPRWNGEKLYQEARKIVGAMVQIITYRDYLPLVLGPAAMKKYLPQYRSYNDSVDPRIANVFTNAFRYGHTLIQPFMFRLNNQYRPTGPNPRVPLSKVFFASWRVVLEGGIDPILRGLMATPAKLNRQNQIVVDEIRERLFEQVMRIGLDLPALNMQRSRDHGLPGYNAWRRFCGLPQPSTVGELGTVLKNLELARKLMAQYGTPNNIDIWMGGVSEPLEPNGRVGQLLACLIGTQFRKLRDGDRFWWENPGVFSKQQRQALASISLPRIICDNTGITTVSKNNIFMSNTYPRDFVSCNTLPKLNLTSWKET
Method: The MR imaging experiments were performed on a 1.5 T GE Excite scanner and a 4.7 T Bruker Pharmascan scanner. For all MR imaging experiments, precontrast T2-(TR=2000, TE=100, ETL=8, NEX=4, fast spin echo sequence) and T1-weighted images (TR=500, TE=11, NEX=4, spin echo sequence) with fat saturation were initially performed to locate the gels or area of inflammation. The substrates (0.3 mmol/kg) were subsequently injected via the tail vein of the mouse. The mouse was immediately imaged after the injection of the contrast agent using multiple T1-weighted sequences with fat saturation for at least 3 hours.
Ten-week old C57BL6 male mice were obtained from Jackson Laboratories. A total of 22 mice were used for the study. • 1. MPO/Matrigel imaging experiments: Matrigel™ (Beckton-Dickinson), a […] basement membrane matrix gel was used to immobilize human MPO and glucose oxidase (to supply H2O2 required for detecting MPO oxidative activity, Calbiochem). This was chosen to reflect deposits of human MPO in inflamed tissue in a mouse model. 400 μL of a mixture of Matrigel™ and MEM (Cambrex) was injected slowly into the thighs of each mouse one hour prior to imaging. The right thigh mixture also contained 15 U of MPO and 4 U of glucose oxidase (Calbiochem), while the left thigh mixture contained no enzyme and thus serves as an internal control. […]

MPO [1] = target: T2, MPO (Homo sapiens, UniProt P05164); experiment: Matrigel tissue model containing MPO, MR imaging at 1.5 T; format: biochemical
T2 construct: purchased BioDesign Inc
T2 sequence (P05164 279-745 limits assumed): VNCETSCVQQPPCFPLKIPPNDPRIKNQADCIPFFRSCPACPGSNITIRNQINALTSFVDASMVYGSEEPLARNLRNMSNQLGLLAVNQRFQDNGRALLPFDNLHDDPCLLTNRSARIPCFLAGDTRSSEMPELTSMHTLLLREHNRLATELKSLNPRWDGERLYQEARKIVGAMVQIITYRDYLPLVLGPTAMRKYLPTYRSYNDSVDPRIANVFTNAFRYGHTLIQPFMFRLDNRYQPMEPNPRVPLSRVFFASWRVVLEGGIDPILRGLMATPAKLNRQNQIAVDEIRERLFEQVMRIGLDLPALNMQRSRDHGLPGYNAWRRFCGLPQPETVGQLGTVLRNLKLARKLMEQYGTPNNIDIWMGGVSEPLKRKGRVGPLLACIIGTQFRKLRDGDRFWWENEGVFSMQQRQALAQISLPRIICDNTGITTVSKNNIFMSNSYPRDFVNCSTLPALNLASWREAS
T2 sequence (P05164 165-273 limits assumed): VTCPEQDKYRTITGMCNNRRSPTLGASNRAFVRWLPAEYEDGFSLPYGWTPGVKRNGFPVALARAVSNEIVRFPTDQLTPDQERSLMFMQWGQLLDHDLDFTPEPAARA
Method: (§1) Standard 96-well plates were prepared and imaged on a 1.5 T whole body clinical General Electric Signa MRI scanner utilizing a standard 3 inch surface coil. Inversion recovery sequences were used to measure T1 relaxation and spin echo sequences were utilized to measure T2 relaxation. T2 weighted images were obtained with TR=5000 ms and TE=100 ms with a fast spin echo sequence. T1 weighted images were obtained with spin echo sequences with the following parameters: TR=100, 200, 350, or 500, TE=11. For the Matrigel™ experiments, a relatively T2 weighted image was obtained at TR=300 ms and TE=200 ms. Single-exponential models were used to obtain T1 and T2. The relaxivities were computed by normalizing relaxation rates to the concentration of gadolinium in each sample, obtained by inductive coupled plasma (ICP) analysis performed by Galbraith Laboratories.
We also designed a tissue model system with Matrigel™ to confirm that the substrates can delineate tissues containing MPO. Substrate was added on top of Matrigel™ containing MPO, and imaged at 1.5 T one hour after sample preparation (to ensure substrate conversion), and at 24 hours after sample preparation. Utilizing this tissue model system, and using glucose/glucose oxidase as the hydrogen peroxide generating system (peroxide is released by neutrophils in vivo), we observed an MPO-specific change in the MR signal (see FIG. 8) that is visible on T1-weighted, T2-weighted, and inversion recovery images, at 1 hour after sample preparation. The changes continued to increase over time, and at 24 hours, there is a 30% increase in the longitudinal relaxation rate (5.3 s^−1 to 6.9 s^−1) and a 20% increase in the transverse relaxation rate (8.8 s^−1 to 10.6 s^−1). […] No such change was identified in control systems where MPO was not present (not shown) or glucose oxidase was not present (see the first cell in FIG. 8).

MPO [2] = target: T2, MPO; experiment: MR imaging at 1.5 T of substrate solutions with MPO; format: biochemical
Method: as §1
Because of the relatively higher relaxivity and relatively faster kinetics with MPO, 5-HT-DOTA was chosen for further evaluation by imaging on a clinical 1.5 T MRI scanner. FIGS. 6A-6F and FIGS. 7A-7F illustrate the relative signal changes for typical T1- and T2-weighted images in aqueous solutions with MPO. […] An approximately 40% signal difference was identified at 1300-2000 U (FIGS. 6C-6D), in keeping with the amount of relaxivity shortening found in the relaxation experiments ˜70%).

[3] = Matrigel/substrate interface, at 24 hours

In the case of `CC(C(=O)NCC(=O)NCCc1c[nH]c2ccc(O)cc12)N1CCN(CC(=O)[O-])CCN(CC(=O)[O-])CCN(CC(=O)[O-])CC1.[Gd+3]` (stereo not drawn) [5-HT-DOTA(Gd), Glycylmethyl DOTA(Gd) 5-Hydroxytryptamide], the “enhancement at 50 minutes after injection” value (endogenous mouse MPO) is reported as “still significant enhancement”, the “increase in the longitudinal relaxation rate” value (MPO [1]; [3]) is reported as 30% and the “increase in the transverse relaxation rate” value (MPO [1]; [3]) is reported as 20%. It also gave a longitudinal relaxation rate (MPO [1]; at 24 hours) of 6.9 s⁻¹, a transverse relaxation rate (MPO [1]; at 24 hours) of 10.6 s⁻¹ and a longitudinal relaxation rate (MPO [1]; starting value) of 5.3 s⁻¹. For the same molecule, the transverse relaxation rate (MPO [1]; starting value) was 8.8 s⁻¹, the “MPO activity giving visible imaging signal changes” value (MPO [2]) was 250 U and 250-650 U and the “signal difference between MPO-converted product and substrate solution” value (MPO [2]; 1300-2000 U) was “approximately 40%”.

Source: patent publication US8153784B2, “Imaging of enzyme activity” (The General Hospital Corporation, priority 2004, dated 2012)
